Data as given in patent publication US20220009909A1, “ADAMTS INHIBITORS, PREPARATION METHODS AND MEDICINAL USES THEREOF” (Eternity Bioscience Inc., priority 2020, published 2022).

Columns and labels:
[1] = molecular target: T1, ADAMTS-5 recombinant protein (Homo sapiens, UniProt Q9UNA0); test: In vitro fluorescence (FRET-peptide) enzymatic assay of ADAMTS-5 activity; assay type: biochemical; conditions: FRET peptide substrate 8 μM, 10 nM enzyme, 37° C. 3 hours
T1 construct: purchased R&D Systems 2198-AD
T1 sequence (Q9UNA0 262-622 limits assumed): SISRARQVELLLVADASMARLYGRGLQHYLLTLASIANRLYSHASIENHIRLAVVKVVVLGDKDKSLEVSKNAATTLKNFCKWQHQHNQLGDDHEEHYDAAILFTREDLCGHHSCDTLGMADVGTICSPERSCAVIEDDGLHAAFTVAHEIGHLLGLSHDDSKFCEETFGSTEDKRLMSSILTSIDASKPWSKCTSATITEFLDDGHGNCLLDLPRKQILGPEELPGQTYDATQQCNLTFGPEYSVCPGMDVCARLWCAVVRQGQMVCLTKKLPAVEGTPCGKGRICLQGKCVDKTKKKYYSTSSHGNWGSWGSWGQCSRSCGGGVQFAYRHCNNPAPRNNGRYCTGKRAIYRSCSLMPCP
Experimental: (§1) A FRET (fluorescence resonance energy transfer) peptide was cleaved by recombinant ADAMTS-4 or ADAMTS-5 proteins into two separate fragments resulting in an increase of fluorescence signal which was quantified. The peptide was 5-FAM-TEGEARGSVILLK (5-TAMRA)K—NH2, customized from ANASPEC. ADAMTS-4 recombinant protein (4307-AD) and ADAMTS-5 recombinant protein (2198-AD) were purchased from R&D Systems.
(§2) An assay buffer containing 50 mM HEPES pH 7.5, 100 mM NaCl, 5 mM CaCl2, 0.1% CHAPS and 5% Glycerol was prepared. A volume of 2.5 μl of compound in the assay buffer was dispensed to a 384-well plate, and 2.5 μl of ADAMTS-4 or ADAMTS-5 protein (final concentration in the reaction was 10 nM) was added. The compounds and proteins were pre-incubated at room temperature for 15 minutes. Then, 5 μl of substrate was added to each well. The final substrate concentrations for ADAMTS-4 and ADAMTS-5 were 15 μM and 8 μM, respectively. The fluorescence signal in each well was determined, after incubation at 37° C. for 3 hours, on a TECAN plate reader (Excitation, 490 nm; Emission, 520 nm).
(§3) The data was inputted into GraphPad Prism, and the IC50 values were calculated using function “log (inhibitor) vs. response-Variable slope (four parameters)”, (See Table 1)

[2] = molecular target: T2, ADAMTS-4 recombinant protein (Homo sapiens, UniProt O75173); test: In vitro fluorescence (FRET-peptide) enzymatic assay of ADAMTS-4 activity; assay type: biochemical; conditions: FRET peptide substrate 15 μM, 10 nM enzyme, 37° C. 3 hours
T2 construct: purchased R&D Systems 4307-AD
T2 sequence (O75173 213-685 limits assumed): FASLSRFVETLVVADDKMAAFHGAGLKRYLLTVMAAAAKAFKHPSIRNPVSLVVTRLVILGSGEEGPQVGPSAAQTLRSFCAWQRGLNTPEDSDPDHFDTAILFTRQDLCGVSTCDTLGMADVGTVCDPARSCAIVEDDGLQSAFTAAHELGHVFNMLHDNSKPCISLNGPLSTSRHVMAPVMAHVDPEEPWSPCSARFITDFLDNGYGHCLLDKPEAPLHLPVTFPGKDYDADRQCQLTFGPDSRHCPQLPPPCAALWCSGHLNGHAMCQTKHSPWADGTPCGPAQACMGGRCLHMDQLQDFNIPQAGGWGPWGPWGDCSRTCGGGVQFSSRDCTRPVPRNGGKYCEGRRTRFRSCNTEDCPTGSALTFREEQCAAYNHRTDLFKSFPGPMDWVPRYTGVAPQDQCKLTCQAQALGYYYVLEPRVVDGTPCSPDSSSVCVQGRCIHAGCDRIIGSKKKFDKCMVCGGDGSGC
Experimental: as §1, §2, §3

[3] = molecular target: T1, ADAMTS-5 recombinant protein; test: Aggrecan-IGD enzymatic assay for ADAMTS-5 inhibitors (ARGSVIL-peptide ELISA); assay type: biochemical; conditions: aggrecan-IGD protein substrate, 37° C. 45 minutes
Experimental: In this assay, the enzymatic activity of recombinant ADAMTS-5 protein (2198-AD, R&D Systems) was assayed with a protein substrate, the aggrecan IGD protein. The aggrecan IGD protein is a polypeptide connecting human aggrecan globular domains 1 and 2 (T331-G458) expressed in E. coli with a C-terminal His-tag (BIOTEZ, 30411000). The enzymatic product ARGSVIL-peptide was detected using an ELISA kit from BioTEZ (30510111). An assay buffer containing 50 mM HEPES pH 7.5, 100 mM NaCl, 5 mM CaCl2, 0.1% CHAPS and 5% Glycerol was prepared. Recombinant ADAMTS-5 protein was diluted to 0.3 nM in the assay buffer. Ten μL of buffer and 10 μl of compound solution was transferred to each well of a 96-well plate and incubated at room temperature for 15 minutes. Substrate aggrecan-IGD was diluted to 100 nM with the assay buffer and 20 μl was added to each well. The plate was incubated at 37° C. for 45 minutes. After incubation, the newly generated epitope ARGSVIL-peptides were measured using the Aggrecanase Activity ELISA Assay Kit following the manufacturer's instructions. Then, 100 μl of stop solution was added and the absorbance of each well was read at 450 nm, using […] as reference on a TECAN plate reader.
A standard curve of the ELISA assay was generated in GraphPad Prism using Sigmoidal 4PL function and the corresponding peptide concentrations were calculated based on the standard curve. The IC50 values were calculated using function “log (inhibitor) vs. response-Variable slope (four parameters)”. (See Table 2).

[4] = test system: mouse femoral head cartilage; test: Mouse cartilage explant assay (IL-1α induced GAG release); assay type: cell-based; conditions: inhibition of GAG release, IL-1α 1 ng/mL, 72 hours; for inhibition at 2 µM: compound 2 μM, read-out: Inhibiton % at 2 μM; for inhibition at 20 µM: compound 20 μM
Experimental: In this assay, fresh mouse femoral head cartilage was treated with IL-1a protein (Sigma-Aldrich, 12778) in culture media, which induced the cartilage catabolism. Then, the GAGs attached to the cleaved aggrecan fragments (released in the media) and the GAGs attached to the intact aggrecan were measured by dimethylmethylene blue dye in the Glycosaminoglycans Assay Kit (Chondrex, 6022).
Femoral head cartilage samples were isolated from mice (25 days old, male, C57BL/6, from Charles River Lab) and put into 2.0 mL tubes filled-up with media (DMEM, 10% FBS, 4 mM Glutamine, penicillin-streptomycin, 20 mM HEPES). 200 μl of media without FBS was added to each well of a 48-well plate, and one piece of cartilage was transferred to a well in the plate. Then the media was aspirated, and compounds and IL-1α protein were added to the plate in a total volume of 400 μl of fresh media without FBS. The final concentration of IL-1α was 1 ng/mL. The plate was incubated at 37° C. for 72 hours in a humidified incubator with 5% CO2 supply.
The supernatant was transferred to a 1.5 mL tube and kept at −20° C. Each cartilage sample was transferred to another 1.5 mL tube containing 400 μl of freshly made papain solution. The papain solution contained 125 μg/mL papain (Sigma-Aldrich, P3125), 0.1 M sodium acetate (Sigma-Aldrich. S7899), pH 5.5 and 5 mM EDTA and 5 mM L-cysteine-HCl (Sigma-Aldrich, C7880). The cartilage samples were kept rocking in a 60° C. water bath for 24 hours.
The lysates were vortexed for 10 seconds and spinned at 10,000 rpm for 2 minutes. Both the supernatant and the lysate samples were diluted with PBS and mixed with 100 μL of dye from the Glycosaminoglycans Assay Kit. The optical density from each well was determined with a TECAN plate reader set to a wavelength of 525 nm,
The concentrations of GAGs in the supernatant and lysates were determined based on the standard curve with a dose range of chondroitin sulfate provided in the kit. The percentage of GAG release was calculated as the following: […]
The test compound effect was expressed as the percent of inhibition using the following formula: […]

O=C1NC(=O)C(CNC(=O)N2Cc3cc(Cl)c(Cl)cc3C2)(C2CC2)N1 (stereo not shown) [Example 1, 5,6-dichloro-N-((4-cyclopropyl-2,5-dioxoimidazolidin-4-yl)methyl)isoindoline-2-carboxamide]
IC50 [1]: 38 nM
IC50 [2]: 31 nM
IC50 [3]: 60 nM

O=C1NC(=O)[C@](CNC(=O)N2Cc3cc(Cl)c(Cl)cc3C2)(C2CC2)N1 [Example 1-2, (R)-5,6-dichloro-N-((4-cyclopropyl-2,5-dioxoimidazolidin-4-yl)methyl)isoindoline-2-carboxamide]
IC50 [1]: 23 nM
IC50 [2]: 16 nM
IC50 [3]: 26 nM
inhibition at 2 µM [4]: 47%
inhibition at 20 µM [4]: 87%

CC1c2cc(Cl)c(Cl)cc2CN1C(=O)NC[C@@]1(C2CC2)NC(=O)NC1=O (stereo partly drawn) [Example 2, 5,6-dichloro-N—(((R)-4-cyclopropyl-2,5-dioxoimidazolidin-4-yl)methyl)-1-methylisoindoline-2-carboxamide]
IC50 [1]: 36 nM
IC50 [2]: 42 nM
IC50 [3]: 44 nM

C[C@@H]1c2cc(Cl)c(Cl)cc2CN1C(=O)NC[C@@]1(C2CC2)NC(=O)NC1=O [Example 2-1, (R)-5,6-dichloro-N—(((R)-4-cyclopropyl-2,5-dioxoimidazolidin-4-yl)methyl)-1-methylisoindoline-2-carboxamide]
IC50 [1]: 9 nM
IC50 [2]: 34 nM
IC50 [3]: 17 nM
inhibition at 2 µM [4]: 14%
inhibition at 20 µM [4]: 86%

O=C1NC(=O)[C@](CNC(=O)N2Cc3cc(Cl)c(C(F)(F)F)cc3C2)(C2CC2)N1 [Example 3, (R)-5-chloro-N-((4-cyclopropyl-2,5-dioxoimidazolidin-4-yl)methyl)-6-(trifluoromethyl)isoindoline-2-carboxamide]
IC50 [1]: 40 nM
IC50 [2]: 39 nM
IC50 [3]: 40 nM

O=C1NC(=O)C(CNC(=O)N2Cc3ccc(C(F)(F)F)cc3C2)(C2CC2)N1 (stereo not shown) [Example 4, N-((4-cyclopropyl-2,5-dioxoimidazolidin-4-yl)methyl)-5-(trifluoromethyl)isoindoline-2-carboxamide]
IC50 [1]: 100 nM
IC50 [2]: 280 nM
IC50 [3]: 140 nM
inhibition at 2 µM [4]: 0%
inhibition at 20 µM [4]: 94%

CC1c2cc(C(F)(F)F)c(Cl)cc2CN1C(=O)NC[C@@]1(C2CC2)NC(=O)NC1=O (stereo partly drawn) [Example 8, 5-chloro-N—(((R)-4-cyclopropyl-2,5-dioxoimidazolidin-4-yl)methyl)-1-methyl-6-(trifluoromethyl)isoindoline-2-carboxamide]
IC50 [1]: 22 nM
IC50 [2]: 33 nM
IC50 [3]: 34 nM

C[C@@H]1c2cc(C(F)(F)F)c(Cl)cc2CN1C(=O)NC[C@@]1(C2CC2)NC(=O)NC1=O [Example 8-1, (R)-5-chloro-N—(((R)-4-cyclopropyl-2,5-dioxoimidazolidin-4-yl)methyl)-1-methyl-6-(trifluoromethyl)isoindoline-2-carboxamide]
IC50 [1]: 8 nM
IC50 [2]: 12 nM
IC50 [3]: 17 nM
inhibition at 2 µM [4]: 61%
inhibition at 20 µM [4]: 95%

[2H]C1([2H])c2cc(Cl)c(C(F)(F)F)cc2C(C)N1C(=O)NC[C@@]1(C2CC2)NC(=O)NC1=O (stereo partly drawn) [Example 9, 5-chloro-N—(((R)-4-cyclopropyl-2,5-dioxoimidazolidin-4-yl)methyl)-1-methyl-6-(trifluoromethyl)isoindoline-3,3-d2-2-carboxamide]
IC50 [1]: 30 nM
IC50 [2]: 53 nM
IC50 [3]: 34 nM

[2H]C1([2H])c2cc(Cl)c(Cl)cc2C(C)N1C(=O)NC[C@@]1(C2CC2)NC(=O)NC1=O (stereo partly drawn) [Example 11, 5,6-dichloro-N—(((R)-4-cyclopropyl-2,5-dioxoimidazolidin-4-yl)methyl)-1-methylisoindoline-3,3-d2-2-carboxamide]
IC50 [1]: 30 nM
IC50 [2]: 92 nM
